Measurements from patent US20240116985A1, “STAPLED PEPTIDES AND METHODS THEREOF” (priority 2020, published 2024).
pIC50: −log10 of the molar value. Like-named read-outs stand apart in the source and are kept apart here.

Experiments:
[1] = molecular target: T1, full-length beta-Catenin (Uniprot ID P35222) (Homo sapiens, UniProt P35222); assay: Fluorescence polarization IC50 (beta-catenin / 5FAM-TCF4 10-53 competition); format: binding
T1 construct: 10 nM full-length beta-Catenin (Uniprot ID P35222)
T1 sequence (P35222 1-781): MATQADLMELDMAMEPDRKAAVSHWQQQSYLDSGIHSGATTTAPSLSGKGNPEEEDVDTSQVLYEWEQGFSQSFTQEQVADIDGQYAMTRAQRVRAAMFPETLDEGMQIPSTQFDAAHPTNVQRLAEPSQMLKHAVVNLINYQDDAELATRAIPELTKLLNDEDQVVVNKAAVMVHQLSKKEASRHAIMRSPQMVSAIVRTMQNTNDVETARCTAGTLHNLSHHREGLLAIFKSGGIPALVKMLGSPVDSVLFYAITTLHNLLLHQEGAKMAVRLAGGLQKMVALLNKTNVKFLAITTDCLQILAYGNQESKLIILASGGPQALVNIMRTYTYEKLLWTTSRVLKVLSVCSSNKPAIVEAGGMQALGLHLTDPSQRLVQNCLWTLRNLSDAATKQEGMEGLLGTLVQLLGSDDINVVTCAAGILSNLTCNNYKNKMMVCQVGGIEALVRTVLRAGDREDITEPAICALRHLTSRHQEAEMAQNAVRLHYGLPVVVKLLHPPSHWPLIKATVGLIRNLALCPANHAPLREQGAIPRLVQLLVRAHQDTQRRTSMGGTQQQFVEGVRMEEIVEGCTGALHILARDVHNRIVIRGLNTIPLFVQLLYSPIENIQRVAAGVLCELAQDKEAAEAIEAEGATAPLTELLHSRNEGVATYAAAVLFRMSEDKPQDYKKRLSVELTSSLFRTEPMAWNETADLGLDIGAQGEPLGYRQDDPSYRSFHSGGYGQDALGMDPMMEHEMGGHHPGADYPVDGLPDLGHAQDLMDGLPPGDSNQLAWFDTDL

CHI Log D procedure = format: physicochemical; settings: for CHI Log D: pH 7.4; for chromatographic logD: pH 7.4, CHI Log D
[2] = molecular target: T2, beta-catenin/TCF4 engagement (Homo sapiens, UniProt P35222); assay: Nano-BRET target engagement assay (B-cat-Halo & TCF4-Luc in HEK293 cells); format: cell-based
T2 construct: expressed in transfected cells; host or cells: HEK293
T2 sequence (P35222 1-781): T1 sequence (P35222 1-781)

[3] = fluorescence polarization, beta-catenin, read-out: FP EC50

SMILES | pIC50 [1, 3] | pIC50 ([1]; read-out: beta-Catenin FP IC50) | CHI Log D (CHI Log D procedure) | pIC50 ([2]; read-out: NanoBRET Abs IC50) | pIC50 ([2]; read-out: NanoBRET IC50) | chromatographic logD (CHI Log D procedure) | pIC50 ([2]; absolute IC50, read-out: NanoBRET Abs IC50)
COCCOCCOCCOCCC(=O)NCCCC[C@@H]1NC(=O)[C@H](C)NC(=O)[C@H](CC(=O)O)NC(=O)[C@H](CC(=O)O)NC(=O)C2(CCCC=CCCCOC(=O)N3CC[C@@](C(=O)N[C@@H](Cc4ccsc4)C(=O)N[C@@H](Cc4csc5ccccc45)C(=O)N[C@@H](CCC(N)=O)C(N)=O)(C3)NC(=O)[C@H](CC(N)=O)NC(=O)[C@H](Cc3ccccc3)NC1=O)CCCC=CC[C@]1(CCCN1C(C)=O)C(=O)N[C@@H](CC(=O)O)C(=O)N[C@@H](CC(C)(C)C)C(=O)N2 (stereo partly drawn) [I-894, Ac-PL3-Asp-Npg-B5-Asp-Asp-Ala-[mPEG4]Lys-Phe-Asn-PyrS2-3Thi-BztA-Gln-NH2] | – | 7.82 | – | < 4.70 | – | 1.45 | –
COCCOCCC(=O)NCCCC[C@H](NC(=O)[C@H](CCC(N)=O)NC(=O)[C@H](Cc1csc2ccccc12)NC(=O)[C@H](Cc1ccsc1)NC(=O)[C@]12CCN(C1)C(=O)OCCCC=CCCCC1(CCCC=CC[C@]3(CCCN3C(C)=O)C(=O)N[C@@H](CC(=O)O)C(=O)N[C@@H](CC(C)(C)C)C(=O)N1)C(=O)N[C@@H](CC(=O)O)C(=O)N[C@@H](CC(=O)O)C(=O)N[C@@H](C)C(=O)N[C@@H](C)C(=O)N[C@@H](Cc1ccccc1)C(=O)N[C@@H](CC(N)=O)C(=O)N2)C(N)=O (stereo partly drawn) [I-911, Ac-PL3-Asp-Npg-B5-Asp-Asp-Ala-Ala-Phe-Asn-PyrS2-3Thi-BztA-Gln-[mPEG2]Lys-NH2] | – | 7.92 | – | 4.64 | – | 1.82 | –
CC(=O)N1CCC[C@]12CC=CCCCC1(CCCC=CCCCOC(=O)N3CC[C@@](C(=O)N[C@@H](Cc4ccccc4Cl)C(=O)N[C@@H](Cc4csc5ccccc45)C(=O)N[C@@H](CCC(N)=O)C(N)=O)(C3)NC(=O)[C@H](Cc3ccccc3)NC(=O)[C@H](Cc3ccccc3)NC(=O)[C@H](C)NC(=O)[C@H](C)NC(=O)[C@H](CN(CC(=O)O)CC(F)(F)F)NC(=O)[C@H](CC(=O)O)NC1=O)NC(=O)[C@H](CC(C)(C)C)NC(=O)[C@H](CC(=O)O)NC2=O (stereo partly drawn) [I-923, Ac-PL3-Asp-Npg-B5-Asp-TfeGA-Ala-Ala-Phe-Phe-PyrS2-2C1F-BztA-Gln-NH2] | – | 7.57 | – | – | – | 2.46 | 5.22

The remaining lines, values ahead:

pIC50 [1, 3] | pIC50 ([1]; read-out: beta-Catenin FP IC50) | CHI Log D (CHI Log D procedure) | pIC50 ([2]; read-out: NanoBRET Abs IC50) | pIC50 ([2]; read-out: NanoBRET IC50) | chromatographic logD (CHI Log D procedure) | pIC50 ([2]; absolute IC50, read-out: NanoBRET Abs IC50) | SMILES
8.00 | 8.00 | −0.008 | 4.62 | – | – | – | CC(=O)N1CCC[C@]12CC=CCCCC1(CCCC=CCCCOC(=O)N3CC[C@@](C(=O)N[C@@H](Cc4ccsc4)C(=O)N[C@@H](Cc4csc5ccccc45)C(=O)N[C@@H](CCC(N)=O)C(=O)NCCCCCCN)(C3)NC(=O)[C@H](CC(N)=O)NC(=O)[C@H](Cc3ccccc3)NC(=O)[C@H](C)NC(=O)[C@H](C)NC(=O)[C@H](CC(=O)O)NC(=O)[C@H](CC(=O)O)NC1=O)NC(=O)[C@H](CC(C)(C)C)NC(=O)[C@H](CC(=O)O)NC2=O (stereo partly drawn) [I-881, Ac-PL3-Asp-Npg-B5-Asp-Asp-Ala-Ala-Phe-Asn-PyrS2-3Thi-BztA-Gln-6AmHex]
7.66 | 7.66 | 2.028 | 4.38 | 4.65 | – | – | CC(=O)N1CCC[C@]12CC=CCCCC1(CCCC=CCCCOC(=O)N3CC[C@@](C(=O)N[C@@H](Cc4ccsc4)C(=O)N[C@@H](Cc4csc5ccccc45)C(=O)N[C@@H](CCC(N)=O)C(=O)NCCCCCCN)(C3)NC(=O)[C@H](CC(N)=O)NC(=O)[C@H](Cc3ccccc3)NC(=O)[C@H](C)NC(=O)[C@H](C)NC(=O)[C@H](CC(=O)O)NC(=O)[C@H](CC(=O)O)NC1=O)NC(=O)[C@H](CC(C)(C)C)NC(=O)[C@H](CC(=O)O)NC2=O (stereo partly drawn) [I-882, Ac-PL3-Asp-Npg-B5-Asp-Asp-Ala-Ala-Phe-Asn-PyrS2-3Thi-BztA-Gln-6AmHex]
